The text below walks through data of patent publication US10781160B1, “Hexadecyl Treprostinil crystals and methods for preparation thereof” (CHIROGATE INTERNATIONAL INC., priority 2019, dated 2020).

The format of this data set is physicochemical. On the procedure:
Moreover, the assay of Hexadecyl Treprostinil crystal Form I can be kept between about 98.0% to about 102.0% even after thirty-six months of placement under normal storage temperature (about 5° C. to about −20° C.). […] Moreover, the assay of Hexadecyl Treprostinil crystal Form II can be kept between about 98.0 to about 102.0% even after thirty-six months of placement under normal storage temperature (about 5° C. to about […]).

“Hexadecyl Treprostinil [Hexadecyl Treprostinil crystal Form I]”: the “stability (other crystalline forms or degraded products of impurities)” value is listed as “no other crystalline forms or degraded products of impurities”.
